Test systems include HCC 2998; CAKI-1; IGROV-1; MOLT-4; U-251; SW-620; MDA-MB-231; NCI-H460; A498; NCI-H522; RPMI-8226; HCT-116; SK-MEL-2; UACC-257; SK-OV-3; HCT-15; PC-3; SF-295; SNB-75; SF-539.
What all share (assay): NCI tumour cell line growth inhibition, 48 h

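Cultured in 96-well plates, cells were exposed to test compound for 48 hours across five concentrations. At the GI50, growth is halved.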 Calls of active or inactive are those of the source. Cut-off read from the data, not from the text of the source: active = GI50 up to about 1.1 µM and inactive = higher.

`CNC(=O)OC(COC)CN1CCN(c2ccccc2C)CC1` (stereo not given): the GI50 with HCC 2998, with CAKI-1, in the experiment on IGROV-1, in the experiment with MOLT-4, in the experiment with U-251 and in the experiment with SW-620 was > 10 µM (inactive) each time. Moreover, the GI50 in the experiment on MDA-MB-231, with NCI-H460, with A498, in the experiment with NCI-H522, in the experiment on RPMI-8226 and in the experiment with HCT-116 was > 10 µM (inactive) each time. The GI50 was > 10 µM (inactive) in the experiment on SK-MEL-2; > 10 µM (inactive) with UACC-257; > 10 µM (inactive) in the experiment with SK-OV-3; over 10 µM in the experiment with HCT-15; > 10 µM (inactive) in the experiment with PC-3; > 10 µM (inactive) in the experiment on SF-295. Besides, the GI50 in the experiment on SNB-75 and with SF-539 was > 10 µM (inactive) each time.
With `CC(=O)NC1=C(OS(=O)(=O)c2ccc(C)cc2)CN(C)C1=O`, the GI50 in the experiment on HCC 2998 is 2.43 µM (inactive); in the experiment on CAKI-1, 3.86 µM (inactive); with IGROV-1, 3.39 µM (inactive); in the experiment on MOLT-4 it was 3.25 µM (inactive); in the experiment with U-251, 2.7 µM (inactive); in the experiment with SW-620, 4.68 µM (inactive). Also, the GI50 was 7.82 µM (inactive) in the experiment with MDA-MB-231; 2.37 µM (inactive) in the experiment on NCI-H460; 4.25 µM (inactive) in the experiment with A498; 2.82 µM (inactive) in the experiment on NCI-H522; 1.59 µM (inactive) with RPMI-8226; 3.15 µM (inactive) with HCT-116. Further, the GI50 in the experiment with SK-MEL-2 is 2.55 µM (inactive); with UACC-257, 2.49 µM (inactive); in the experiment on SK-OV-3, 7.57 µM (inactive); in the experiment on HCT-15, 2.96 µM; in the experiment on PC-3, 2.84 µM (inactive); with SF-295 it was 4.1 µM (inactive). For the same compound, the GI50 in the experiment on SNB-75 is 4.31 µM (inactive); in the experiment with SF-539, 2.06 µM (inactive).
For `O=C1C(c2ccc([N+](=O)[O-])cc2)=C(Cl)C(=O)c2c(O)cccc21`, the GI50 was 52.6 µM (inactive) in the experiment with HCC 2998; 23.7 µM (inactive) in the experiment with CAKI-1; 26.4 µM (inactive) in the experiment with IGROV-1; 3.66 µM (inactive) with MOLT-4; 17.9 µM (inactive) with U-251; 4.18 µM (inactive) in the experiment with SW-620. The GI50 in the experiment on MDA-MB-231 is 17.1 µM (inactive); with NCI-H460 it was 52.8 µM (inactive); with A498, 25.3 µM (inactive); with NCI-H522 it was 7.87 µM (inactive); in the experiment on RPMI-8226 it was 41.3 µM (inactive); in the experiment with HCT-116, 27.9 µM (inactive). In addition, the GI50 in the experiment with SK-MEL-2 is 17.9 µM (inactive); with UACC-257, 18.4 µM (inactive); in the experiment on SK-OV-3, 50.8 µM (inactive); with HCT-15, 25.5 µM; in the experiment on PC-3, 26.1 µM (inactive); in the experiment with SF-295, > 54.1 µM (inactive). For the same compound, the GI50 is 35.3 µM (inactive) with SNB-75 and 20.2 µM (inactive) with SF-539.
As for `COC(=O)CC1CN(C(=O)OCc2ccccc2)C(C)(C)O1` (stereo not given), the GI50 in the experiment with HCC 2998 was > 100 µM (inactive); in the experiment with CAKI-1 it was > 100 µM (inactive); with IGROV-1, 82.2 µM (inactive); in the experiment on MOLT-4 it was 80.2 µM (inactive); with U-251 it was > 100 µM (inactive); in the experiment on SW-620, > 100 µM (inactive). Moreover, the GI50 in the experiment on MDA-MB-231 is > 100 µM (inactive); with NCI-H460, > 100 µM (inactive); with A498, > 100 µM (inactive); with NCI-H522, 5.46 µM (inactive); with RPMI-8226 it was 81.3 µM (inactive); with HCT-116, > 100 µM (inactive). For the same compound, the GI50 with SK-MEL-2 is > 100 µM (inactive); in the experiment with UACC-257 it was > 100 µM (inactive); in the experiment with SK-OV-3, > 100 µM (inactive); in the experiment with HCT-15, over 100 µM; in the experiment with PC-3, 62.7 µM (inactive); in the experiment on SF-295, > 100 µM (inactive). The GI50 in the experiment with SNB-75 was 3.3 µM (inactive); with SF-539, > 100 µM (inactive).
Take `CN(Cc1cccc2ccccc12)Cc1cccc2ccccc12`: the GI50 in the experiment with HCC 2998 is 22.7 µM (inactive); in the experiment with CAKI-1 it was 50.1 µM (inactive); in the experiment with IGROV-1, 32.2 µM (inactive); in the experiment with MOLT-4, 15.3 µM (inactive); in the experiment on U-251 it was 22.6 µM (inactive); in the experiment with SW-620, 20.6 µM (inactive). Besides, the GI50 with MDA-MB-231 was 21.8 µM (inactive); in the experiment with NCI-H460, 40.6 µM (inactive); in the experiment with A498 it was 28.8 µM (inactive); with NCI-H522, 19 µM (inactive); in the experiment on RPMI-8226, 22.6 µM (inactive); with HCT-116, 13.4 µM (inactive). For the same compound, the GI50 with SK-MEL-2 is 14.1 µM (inactive); in the experiment with UACC-257, 50.1 µM (inactive); with SK-OV-3, 65.6 µM (inactive); in the experiment with HCT-15 it was 22.2 µM; in the experiment with PC-3 it was 24 µM (inactive); with SF-295, 26.7 µM (inactive). In addition, the GI50 in the experiment with SNB-75 is 46.1 µM (inactive); with SF-539, 23.8 µM (inactive).
Turning to `COc1cc2nncc(SCc3ccc(Cl)c(Cl)c3)c2cc1OC`, the GI50 in the experiment on HCC 2998 is > 100 µM (inactive); with CAKI-1, > 73.8 µM (inactive); with IGROV-1, 99.3 µM (inactive); in the experiment with MOLT-4, > 100 µM (inactive); with U-251, 50.5 µM (inactive); with SW-620, > 100 µM (inactive). For the same compound, the GI50 in the experiment with MDA-MB-231 is > 100 µM (inactive); in the experiment with NCI-H460 it was > 72.3 µM (inactive); with A498, > 100 µM (inactive); with NCI-H522 it was 23.2 µM (inactive); with RPMI-8226, > 100 µM (inactive); in the experiment with HCT-116, > 100 µM (inactive). Moreover, the GI50 is > 100 µM (inactive) in the experiment on SK-MEL-2; > 56.4 µM (inactive) in the experiment on UACC-257; > 71.3 µM (inactive) with SK-OV-3; over 31.3 µM with HCT-15; > 100 µM (inactive) with PC-3; > 69.3 µM (inactive) with SF-295. For the same compound, the GI50 in the experiment with SNB-75 is 24.4 µM (inactive); with SF-539 it was 35.6 µM (inactive).

For the origin of these results see ChEMBL document CHEMBL1201862, “PubChem BioAssay data set” (2004).
